The source of these data is patent US20260078120A1, “SUBSTITUTED PYRIDOPYRIMIDINONES” (MIRATI THERAPEUTICS, INC., priority 2022, published 2026).

pIC50: −log10 of the molar value. Where only a bound is given, the exact number is not on record here.

Experiment [1] concerns SKBR3 (PI3Kα wild type) cells. The experiment can be described thus: CellTiter-Glo 2.0 luminescent cell viability assay, 72 hours, SKBR3 cells. The following applies: Homo sapiens, SK-BR-3, 72 h, SKBR3 (PI3Kα wild type) cells, CellTiter-Glo, approximately 72 hours; read-out: SKBR3 (WT) Viability IC50. It counts as cell-based. In short, it runs like this:
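Viability measured via CTG luminescence following roughly 72 hours of compound exposure at 37° C. Dosing used a 10 um starting concentration diluted 1:4 over 10 points; percent-of-vehicle data fitted with a variable-slope four-parameter model for IC50.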

Experiment [2] deals with T47D (PI3Kα H1047R mutant) cells. Kind of experiment: CellTiter-Glo 2.0 luminescent cell viability assay, 72 hours, T47D cells. It counts as cell-based. The settings on record: Homo sapiens, T47D, 72 h, T47D (PI3Kα H1047R mutant) cells, CellTiter-Glo, approximately 72 hours; read-out: T47D (H1047R mutant) Viability IC50. An outline of the steps: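 Cells seeded at 1000 per well overnight were dosed with a 10-concentration, 1:4 series starting at 10 µM and incubated ~72 h at 37° C. Viability was read by CellTiter-Glo 2.0 luminescence after 30 min at room temperature. IC50 came from four-parameter fits of percent vehicle control.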

On to `CO[C@H]1CN(c2nc3c([C@@H](C)Nc4ccccc4C(=O)O)cc(C)cn3c(=O)c2C#N)CC1(F)F` [Example 11-116, 2-(((R)-1-(3-cyano-2-((S)-3,3-difluoro-4-methoxypyrrolidin-1-yl)-7-methyl-4-oxo-4H-pyrido[1,2-a]pyrimidin-9-yl)ethyl)amino)benzoic acid], for which the results for the negative logarithm of the IC50 (pIC50) in experiment [1] and in experiment [2] were under 5.00 and 6.81, respectively.
With `CO[C@@H]1CN(c2nc3c([C@@H](C)Nc4ccccc4C(=O)O)cc(C)cn3c(=O)c2C)CC1(F)F` [Example 11-117, 2-(((R)-1-(2-((R)-3,3-difluoro-4-methoxypyrrolidin-1-yl)-3,7-dimethyl-4-oxo-4H-pyrido[1,2-a]pyrimidin-9-yl)ethyl)amino)benzoic acid], the pIC50 in experiment [1] is under 5.00; in experiment [2], 6.46.
As to `CO[C@H]1CN(c2nc3c([C@@H](C)Nc4ccccc4C(=O)O)cc(C)cn3c(=O)c2C)CC1(F)F` [Example 11-118, 2-(((R)-1-(2-((S)-3,3-difluoro-4-methoxypyrrolidin-1-yl)-3,7-dimethyl-4-oxo-4H-pyrido[1,2-a]pyrimidin-9-yl)ethyl)amino)benzoic acid], the pIC50 in experiment [1] is under 5.00; in experiment [2], 6.63.
With `Cc1cc([C@@H](C)Nc2ccccc2C(=O)O)c2nc(N3C[C@H](C)C(F)(F)C3)c(C)c(=O)n2c1` [Example 11-119, 2-(((R)-1-(2-((S)-3,3-difluoro-4-methylpyrrolidin-1-yl)-3,7-dimethyl-4-oxo-4H-pyrido[1,2-a]pyrimidin-9-yl)ethyl)amino)benzoic acid], the pIC50 in experiment [1] is under 5.00; in experiment [2], 6.88.
In the case of `Cc1cc([C@@H](C)Nc2ccccc2C(=O)O)c2nc(N3C[C@@H](C)C(F)(F)C3)c(C)c(=O)n2c1` [Example 11-120, 2-(((R)-1-(2-((R)-3,3-difluoro-4-methylpyrrolidin-1-yl)-3,7-dimethyl-4-oxo-4H-pyrido[1,2-a]pyrimidin-9-yl)ethyl)amino)benzoic acid], the values for the negative logarithm of the IC50 (pIC50) in experiment [1] and in experiment [2] were under 5.00 and 6.77, respectively.
For the molecule `Cc1cc([C@@H](C)Nc2ccccc2C(=O)O)c2nc(N3CC(C)C(F)(F)C3)c(C)c(=O)n2c1` (stereo partly drawn) [Example 11-121, 2-(((1R)-1-(2-(3,3-difluoro-4-methylpyrrolidin-1-yl)-3,7-dimethyl-4-oxo-4H-pyrido[1,2-a]pyrimidin-9-yl)ethyl)amino)benzoic acid], the results for the pIC50 in experiment [1] and in experiment [2] were 5.28 and 7.22, respectively.
With `Cc1cc([C@@H](C)Nc2ccccc2C(=O)O)c2nc(N3CCC(F)(F)[C@@H]3C)c(C)c(=O)n2c1` [Example 11-122, 2-(((R)-1-(2-((S)-3,3-difluoro-2-methylpyrrolidin-1-yl)-3,7-dimethyl-4-oxo-4H-pyrido[1,2-a]pyrimidin-9-yl)ethyl)amino)benzoic acid], the pIC50 in experiment [1] was under 5.00; in experiment [2], 6.50.
Regarding `Cc1cc([C@@H](C)Nc2ccccc2C(=O)O)c2nc(N3CCC(F)(F)[C@H]3C)c(C)c(=O)n2c1` [Example 11-123, 2-(((R)-1-(2-((R)-3,3-difluoro-2-methylpyrrolidin-1-yl)-3,7-dimethyl-4-oxo-4H-pyrido[1,2-a]pyrimidin-9-yl)ethyl)amino)benzoic acid], the figures for the pIC50 in experiment [1] and in experiment [2] were under 5.00 and 6.55, respectively.
As for `Cc1cc([C@@H](C)Nc2ccccc2C(=O)O)c2nc(N3CC(F)(F)C[C@H]3C)c(C)c(=O)n2c1` [Example 11-125, 2-(((R)-1-(2-((R)-4,4-difluoro-2-methylpyrrolidin-1-yl)-3,7-dimethyl-4-oxo-4H-pyrido[1,2-a]pyrimidin-9-yl)ethyl)amino)benzoic acid], the pIC50 in experiment [1] is under 5.00; in experiment [2] it was 6.27.
As to `Cc1cc([C@@H](C)Nc2ccccc2C(=O)O)c2nc(N3CC(F)(F)C[C@@H]3C)c(C)c(=O)n2c1` [Example 11-126, 2-(((R)-1-(2-((S)-4,4-difluoro-2-methylpyrrolidin-1-yl)-3,7-dimethyl-4-oxo-4H-pyrido[1,2-a]pyrimidin-9-yl)ethyl)amino)benzoic acid], the results for the negative logarithm of the IC50 (pIC50) in experiment [1] and in experiment [2] were under 5.00 and 6.46, respectively.
